From ChEMBL document CHEMBL5678809, “Preclinical characterization of GLPG0634, a selective inhibitor of JAK1, for the treatment of inflammatory diseases” (J Immunol, 2013)
Active and inactive are the calls of the source. The rule behind the calls is not given here.

What was measured:
[1] = biological target: Receptor tyrosine-protein kinase erbB-4 (Homo sapiens) (UniProt Q15303); experiment: Inhibition of ErbB4 (unknown origin) at 1 uM relative to control
[2] = Volume of distribution at steady state in Sprague-Dawley rat at 1 mg/kg, iv measured upto 8 hrs by LC-MS analysis; type: ADME, organism-based; conditions: in vivo, read-out: Vdss
[3] = biological target: Protein kinase C delta type (Homo sapiens) (UniProt Q05655); experiment: Inhibition of PKCd (unknown origin) at 1 uM relative to control
[4] = biological target: T1, Misshapen-like kinase 1 (Homo sapiens, UniProt Q8N4C8); experiment: Inhibition of MINK1 (unknown origin) at 1 uM relative to control
[5] = biological target: Tyrosine-protein kinase Fyn (Homo sapiens) (UniProt P06241); experiment: Inhibition of Fyn (unknown origin) at 1 uM relative to control
[6] = tested on: Mus musculus; experiment: Antiarthritic activity against collagen-induced arthritis DBA/1J mouse model assessed as SCF level in serum at 50 mg/kg, po measured for 4 hrs by luminex analysis (reference value: 672.4 +/- 242.2 ng/ml); type: functional
[7] = tested on: Mus musculus; experiment: Antiarthritic activity against collagen-induced arthritis DBA/1J mouse model assessed as reduction in IL-1beta expression at 50 mg/kg, po measured for 4 hrs; type: functional, organism-based
[8] = biological target: Calcium/calmodulin-dependent protein kinase type 1 (Homo sapiens) (UniProt Q14012); experiment: Inhibition of CaMK1 (unknown origin) at 1 uM relative to control
[9] = tested on: Mus musculus; experiment: Antiarthritic activity against collagen-induced arthritis DBA/1J mouse model assessed as M-CSF1 level in serum at 50 mg/kg, po measured for 4 hrs by luminex analysis (reference value: 11.1 +/- 1.3 ng/ml); type: functional
[10] = biological target: T1, Misshapen-like kinase 1; experiment: Inhibition of MINK (unknown origin)
[11] = biological target: PAS domain-containing serine/threonine-protein kinase (Homo sapiens) (UniProt Q96RG2); experiment: Inhibition of PASK (unknown origin) at 1 uM relative to control
[12] = biological target: Tyrosine-protein kinase ITK/TSK (Homo sapiens) (UniProt Q08881); experiment: Inhibition of Itk (unknown origin) at 1 uM relative to control
Sequence of Tyrosine-protein kinase ITK/TSK (Homo sapiens) (Q08881 whole entry): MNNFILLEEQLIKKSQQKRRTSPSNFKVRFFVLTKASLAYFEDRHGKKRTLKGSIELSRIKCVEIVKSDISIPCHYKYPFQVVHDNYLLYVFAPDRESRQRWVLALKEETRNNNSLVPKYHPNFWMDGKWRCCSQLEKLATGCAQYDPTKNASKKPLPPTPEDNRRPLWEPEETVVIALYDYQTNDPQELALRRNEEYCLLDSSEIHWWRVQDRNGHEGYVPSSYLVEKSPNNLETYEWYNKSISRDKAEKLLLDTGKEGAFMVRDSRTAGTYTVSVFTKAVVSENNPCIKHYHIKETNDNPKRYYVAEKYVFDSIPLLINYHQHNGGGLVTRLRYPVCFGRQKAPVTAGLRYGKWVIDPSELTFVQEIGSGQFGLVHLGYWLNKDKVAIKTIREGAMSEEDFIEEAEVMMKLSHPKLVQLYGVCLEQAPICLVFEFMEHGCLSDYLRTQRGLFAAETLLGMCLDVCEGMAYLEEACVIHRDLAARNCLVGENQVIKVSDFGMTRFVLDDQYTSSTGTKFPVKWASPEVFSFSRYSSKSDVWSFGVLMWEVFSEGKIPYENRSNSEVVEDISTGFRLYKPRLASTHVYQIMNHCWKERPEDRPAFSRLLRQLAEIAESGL

[13] = biological target: Testis-specific serine/threonine-protein kinase 2 (Homo sapiens) (UniProt Q96PF2); experiment: Inhibition of TSSK2 (unknown origin) at 1 uM relative to control
[14] = biological target: Macrophage colony-stimulating factor 1 receptor (Homo sapiens, UniProt P07333); experiment: Inhibition of FMS (unknown origin)
[15] = tested on: Mus musculus; experiment: Antiarthritic activity against collagen-induced arthritis DBA/1J mouse model assessed as reduction in RANKL expression at 50 mg/kg, po measured for 4 hrs; type: functional, organism-based
[16] = biological target: MAP kinase-interacting serine/threonine-protein kinase 2 (Homo sapiens, UniProt Q9HBH9); experiment: Inhibition of MNK2 (unknown origin)
[17] = biological target: Serine/threonine-protein kinase pim-2 (Homo sapiens) (UniProt Q9P1W9); experiment: Inhibition of Pim-2 (unknown origin) at 1 uM relative to control
[18] = biological target: Death-associated protein kinase 3 (Homo sapiens) (UniProt O43293); experiment: Inhibition of ZIPK (unknown origin) at 1 uM relative to control
[19] = biological target: Ephrin type-A receptor 8 (Homo sapiens) (UniProt P29322); experiment: Inhibition of EphA8 (unknown origin) at 1 uM relative to control
[20] = AUC (0 to 24 hrs) in CD-1 mouse at 5 mg/kg, po measured upto 24 hrs by LC-MS analysis; type: ADME, organism-based; conditions: in vivo
[21] = biological target: Eukaryotic elongation factor 2 kinase (Homo sapiens) (UniProt O00418); experiment: Inhibition of eEF2K (unknown origin) at 1 uM relative to control
Sequence of Eukaryotic elongation factor 2 kinase (Homo sapiens) (O00418 whole entry): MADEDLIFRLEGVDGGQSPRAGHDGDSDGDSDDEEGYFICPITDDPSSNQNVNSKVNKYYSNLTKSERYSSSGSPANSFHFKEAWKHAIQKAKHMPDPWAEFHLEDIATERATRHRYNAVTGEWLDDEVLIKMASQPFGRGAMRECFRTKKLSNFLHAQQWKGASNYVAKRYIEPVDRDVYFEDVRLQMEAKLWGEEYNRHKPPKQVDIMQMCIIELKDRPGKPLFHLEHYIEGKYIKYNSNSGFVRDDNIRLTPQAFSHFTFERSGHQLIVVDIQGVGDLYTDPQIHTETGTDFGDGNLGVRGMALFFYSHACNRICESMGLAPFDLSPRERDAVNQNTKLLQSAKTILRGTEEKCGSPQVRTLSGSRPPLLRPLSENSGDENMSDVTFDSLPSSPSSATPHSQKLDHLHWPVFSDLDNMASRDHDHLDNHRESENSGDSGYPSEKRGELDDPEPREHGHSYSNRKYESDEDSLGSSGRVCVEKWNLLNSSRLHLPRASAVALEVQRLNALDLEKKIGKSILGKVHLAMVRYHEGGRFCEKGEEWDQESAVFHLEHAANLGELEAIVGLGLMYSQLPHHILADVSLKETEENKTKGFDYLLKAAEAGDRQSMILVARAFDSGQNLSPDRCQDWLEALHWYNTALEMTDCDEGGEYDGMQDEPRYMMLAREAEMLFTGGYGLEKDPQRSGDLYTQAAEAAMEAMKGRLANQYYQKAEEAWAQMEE

[22] = biological target: Tyrosine-protein kinase receptor TYRO3 (Homo sapiens) (UniProt Q06418); experiment: Inhibition of Rse (unknown origin) at 1 uM relative to control
[23] = biological target: Serine/threonine-protein kinase tousled-like 2 (Homo sapiens) (UniProt Q86UE8); experiment: Inhibition of TLK2 (unknown origin) at 1 uM relative to control
[24] = biological target: G protein-coupled receptor kinase 5 (Homo sapiens) (UniProt P34947); experiment: Inhibition of GRK5 (unknown origin) at 1 uM relative to control
[25] = biological target: Focal adhesion kinase 1 (Homo sapiens) (UniProt Q05397); experiment: Inhibition of FAK (unknown origin) at 1 uM relative to control
Sequence of Focal adhesion kinase 1 (Homo sapiens) (Q05397 2-1052 limits assumed): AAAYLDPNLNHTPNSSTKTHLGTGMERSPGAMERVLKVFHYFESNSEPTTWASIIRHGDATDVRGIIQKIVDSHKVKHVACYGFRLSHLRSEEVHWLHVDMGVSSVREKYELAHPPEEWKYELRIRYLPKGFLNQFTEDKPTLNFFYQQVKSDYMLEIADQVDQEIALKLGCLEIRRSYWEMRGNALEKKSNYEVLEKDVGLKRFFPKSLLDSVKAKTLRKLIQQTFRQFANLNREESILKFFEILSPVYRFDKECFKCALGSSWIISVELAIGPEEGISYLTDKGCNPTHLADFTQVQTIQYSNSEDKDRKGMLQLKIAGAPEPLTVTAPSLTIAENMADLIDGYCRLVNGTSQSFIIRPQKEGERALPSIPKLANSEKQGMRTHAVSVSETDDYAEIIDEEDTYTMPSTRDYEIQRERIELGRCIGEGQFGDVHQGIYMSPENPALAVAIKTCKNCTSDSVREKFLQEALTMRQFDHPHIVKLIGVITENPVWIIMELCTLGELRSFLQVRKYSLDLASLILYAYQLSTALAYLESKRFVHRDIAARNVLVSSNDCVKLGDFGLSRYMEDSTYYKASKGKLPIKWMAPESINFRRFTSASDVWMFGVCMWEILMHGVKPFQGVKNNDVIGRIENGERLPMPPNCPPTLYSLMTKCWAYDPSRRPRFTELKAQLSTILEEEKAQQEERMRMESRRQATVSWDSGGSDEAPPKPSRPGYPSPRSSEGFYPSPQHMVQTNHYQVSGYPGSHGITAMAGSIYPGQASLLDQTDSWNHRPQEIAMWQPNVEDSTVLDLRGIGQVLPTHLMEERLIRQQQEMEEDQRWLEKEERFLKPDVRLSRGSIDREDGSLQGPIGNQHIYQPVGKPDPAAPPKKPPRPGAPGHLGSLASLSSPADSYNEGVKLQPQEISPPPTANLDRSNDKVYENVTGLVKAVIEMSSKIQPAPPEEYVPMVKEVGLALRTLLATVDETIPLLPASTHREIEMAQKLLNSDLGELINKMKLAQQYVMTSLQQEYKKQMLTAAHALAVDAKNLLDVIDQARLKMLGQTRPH

[26] = biological target: Tyrosine-protein kinase SYK (Homo sapiens, UniProt P43405); experiment: Inhibition of SYK (unknown origin)
[27] = biological target: Mitogen-activated protein kinase 13 (Homo sapiens) (UniProt O15264); experiment: Inhibition of SAPK4 (unknown origin) at 1 uM relative to control
[28] = biological target: Muscle, skeletal receptor tyrosine-protein kinase (Homo sapiens) (UniProt O15146); experiment: Inhibition of MuSK (unknown origin) at 1 uM relative to control
[29] = biological target: Tyrosine-protein kinase Fgr (Homo sapiens) (UniProt P09769); experiment: Inhibition of Fgr (unknown origin) at 1 uM relative to control
Sequence of Tyrosine-protein kinase Fgr (Homo sapiens) (P09769 2-529 limits assumed): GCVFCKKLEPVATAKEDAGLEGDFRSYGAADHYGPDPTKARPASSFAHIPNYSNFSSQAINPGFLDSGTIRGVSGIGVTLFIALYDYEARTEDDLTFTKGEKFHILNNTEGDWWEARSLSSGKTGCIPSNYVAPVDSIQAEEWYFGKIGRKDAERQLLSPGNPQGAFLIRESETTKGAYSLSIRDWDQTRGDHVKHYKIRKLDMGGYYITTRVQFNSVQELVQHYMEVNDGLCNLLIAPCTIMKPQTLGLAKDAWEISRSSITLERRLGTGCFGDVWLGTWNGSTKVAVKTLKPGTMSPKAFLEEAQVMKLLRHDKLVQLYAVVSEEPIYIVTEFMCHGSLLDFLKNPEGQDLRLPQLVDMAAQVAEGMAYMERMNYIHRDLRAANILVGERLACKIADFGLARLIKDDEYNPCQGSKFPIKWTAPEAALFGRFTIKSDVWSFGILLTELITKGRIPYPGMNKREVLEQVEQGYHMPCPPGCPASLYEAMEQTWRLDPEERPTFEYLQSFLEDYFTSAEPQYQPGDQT

[30] = biological target: Tyrosine-protein kinase Mer (Homo sapiens, UniProt Q12866); experiment: Inhibition of Mer (unknown origin)
Sequence of Tyrosine-protein kinase Mer (Q12866 whole entry): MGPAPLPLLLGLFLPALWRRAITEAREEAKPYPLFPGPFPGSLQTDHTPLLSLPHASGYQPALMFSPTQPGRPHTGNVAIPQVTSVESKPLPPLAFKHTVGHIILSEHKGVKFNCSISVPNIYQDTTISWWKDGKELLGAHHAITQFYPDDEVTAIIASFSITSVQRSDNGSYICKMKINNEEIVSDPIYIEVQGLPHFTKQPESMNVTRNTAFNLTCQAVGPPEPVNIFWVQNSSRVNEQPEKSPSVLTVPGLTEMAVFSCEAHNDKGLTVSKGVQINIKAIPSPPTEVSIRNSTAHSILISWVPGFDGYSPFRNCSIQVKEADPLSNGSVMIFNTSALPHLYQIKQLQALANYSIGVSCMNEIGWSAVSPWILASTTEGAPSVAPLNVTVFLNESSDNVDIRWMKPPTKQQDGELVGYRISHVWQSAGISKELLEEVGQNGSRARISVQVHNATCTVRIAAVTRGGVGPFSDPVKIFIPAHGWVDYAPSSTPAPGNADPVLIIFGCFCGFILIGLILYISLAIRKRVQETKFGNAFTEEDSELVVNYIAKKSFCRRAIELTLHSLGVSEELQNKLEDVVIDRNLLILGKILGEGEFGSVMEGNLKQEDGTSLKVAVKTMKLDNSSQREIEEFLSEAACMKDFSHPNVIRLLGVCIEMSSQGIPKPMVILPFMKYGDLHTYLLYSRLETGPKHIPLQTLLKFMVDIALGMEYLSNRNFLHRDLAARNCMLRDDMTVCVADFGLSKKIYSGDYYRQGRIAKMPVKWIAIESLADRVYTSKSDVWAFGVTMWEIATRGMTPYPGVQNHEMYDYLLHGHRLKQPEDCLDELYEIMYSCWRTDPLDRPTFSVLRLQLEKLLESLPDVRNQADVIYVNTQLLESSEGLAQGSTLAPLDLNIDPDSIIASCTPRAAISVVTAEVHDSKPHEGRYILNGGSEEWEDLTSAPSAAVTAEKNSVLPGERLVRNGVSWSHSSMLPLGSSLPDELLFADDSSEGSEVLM

[31] = biological target: Mitogen-activated protein kinase kinase kinase 3 (Homo sapiens, UniProt Q99759); experiment: Inhibition of MAP3K3 (unknown origin)
Sequence of Mitogen-activated protein kinase kinase kinase 3 (Q99759 whole entry): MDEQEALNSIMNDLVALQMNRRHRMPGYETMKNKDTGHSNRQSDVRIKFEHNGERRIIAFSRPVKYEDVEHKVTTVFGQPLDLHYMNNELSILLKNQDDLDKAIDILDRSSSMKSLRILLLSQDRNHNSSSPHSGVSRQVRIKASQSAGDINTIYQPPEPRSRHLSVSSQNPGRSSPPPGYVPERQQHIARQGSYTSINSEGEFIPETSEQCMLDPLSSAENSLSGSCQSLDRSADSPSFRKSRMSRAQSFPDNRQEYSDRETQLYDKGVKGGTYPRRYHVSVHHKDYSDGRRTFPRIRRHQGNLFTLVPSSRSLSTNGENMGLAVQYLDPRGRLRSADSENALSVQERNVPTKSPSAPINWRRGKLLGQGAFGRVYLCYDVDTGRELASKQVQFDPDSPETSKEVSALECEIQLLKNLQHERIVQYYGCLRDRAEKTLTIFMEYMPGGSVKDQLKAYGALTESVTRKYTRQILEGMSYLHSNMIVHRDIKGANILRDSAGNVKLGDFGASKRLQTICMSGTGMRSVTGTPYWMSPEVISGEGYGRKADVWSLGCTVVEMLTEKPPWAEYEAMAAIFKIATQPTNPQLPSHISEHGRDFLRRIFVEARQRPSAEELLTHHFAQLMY

[32] = AUC (0 to 24 hrs) in CD-1 mouse at 1 mg/kg, iv measured upto 8 hrs by LC-MS analysis; type: ADME, organism-based; conditions: in vivo
[33] = biological target: Tyrosine-protein kinase ABL2 (Homo sapiens) (UniProt P42684); experiment: Inhibition of Arg (unknown origin) at 1 uM relative to control
[34] = biological target: Serine/threonine-protein kinase Chk1 (Homo sapiens) (UniProt O14757); experiment: Inhibition of CHK1 (unknown origin) at 1 uM relative to control
[35] = biological target: Hepatocyte growth factor receptor (Homo sapiens) (UniProt P08581); experiment: Inhibition of Met (unknown origin) at 1 uM relative to control
[36] = tested on: Mus musculus; experiment: Antiarthritic activity against collagen-induced arthritis DBA/1J mouse model assessed as reduction in MCP-1 level in serum at 50 mg/kg, po measured for 4 hrs by luminex analysis; type: functional, organism-based
[37] = biological target: Rhodopsin kinase GRK7 (Homo sapiens) (UniProt Q8WTQ7); experiment: Inhibition of GRK7 (unknown origin) at 1 uM relative to control
[38] = biological target: Serine/threonine-protein kinase 24 (Homo sapiens) (UniProt Q9Y6E0); experiment: Inhibition of MST3 (unknown origin) at 1 uM relative to control
Sequence of Serine/threonine-protein kinase 24 (Homo sapiens) (Q9Y6E0 whole entry, looked up): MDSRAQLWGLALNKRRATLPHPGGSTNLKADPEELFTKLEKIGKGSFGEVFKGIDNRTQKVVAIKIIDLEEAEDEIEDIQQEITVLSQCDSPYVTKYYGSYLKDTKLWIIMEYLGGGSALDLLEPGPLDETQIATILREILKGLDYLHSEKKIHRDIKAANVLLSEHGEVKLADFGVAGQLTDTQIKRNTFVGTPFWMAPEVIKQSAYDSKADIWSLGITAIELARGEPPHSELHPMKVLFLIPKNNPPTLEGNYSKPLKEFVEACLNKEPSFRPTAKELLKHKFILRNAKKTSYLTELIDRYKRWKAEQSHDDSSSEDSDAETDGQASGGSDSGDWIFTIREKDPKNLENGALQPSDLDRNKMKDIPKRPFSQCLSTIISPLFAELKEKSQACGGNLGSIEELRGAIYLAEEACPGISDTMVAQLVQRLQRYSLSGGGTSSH

[39] = tested on: Mus musculus; experiment: Antiarthritic activity against collagen-induced arthritis DBA/1J mouse model assessed as reduction in clinical score at 50 mg/kg, po administered twice daily for 14 days; type: functional, organism-based; conditions: time 14.0 day
[40] = biological target: Epidermal growth factor receptor (Homo sapiens) (UniProt P00533); experiment: Inhibition of EGFR (unknown origin) at 1 uM relative to control

SMILES: O=C(Nc1nc2cccc(-c3ccc(CN4CCS(=O)(=O)CC4)cc3)n2n1)C1CC1 [FILGOTINIB]
- inhibition [1]: -5%
- Vd [2]: 1.8 L/kg
- inhibition [3]: -10%
- inhibition [4]: -2%
- inhibition [5]: 0%
- Activity [6]: 422.6 ng/mL
- Activity [7]: Active
- inhibition [8]: -4%
- Activity [9]: 7.8 ng/mL
- IC50 [10]: > 10 µM
- inhibition [11]: 1%
- inhibition [12]: -4%
- inhibition [13]: -5%
- IC50 [14]: 0.489 µM
- Activity [15]: Active
- IC50 [16]: > 10 µM
- inhibition [17]: -7%
- inhibition [18]: 3%
- inhibition [19]: 1%
- AUC [20]: 1890 ng·h/mL
- inhibition [21]: -4%
- inhibition [22]: 4%
- inhibition [23]: -6%
- inhibition [24]: -10%
- inhibition [25]: 23%
- IC50 [26]: > 10 µM
- inhibition [27]: -10%
- inhibition [28]: -3%
- inhibition [29]: 5%
- IC50 [30]: 1.27 µM
- IC50 [31]: > 10 µM
- AUC [32]: 347 ng·h/mL
- inhibition [33]: 14%
- inhibition [34]: 10%
- inhibition [35]: -3%
- Activity [36]: Active
- inhibition [37]: -8%
- inhibition [38]: 0%
- Activity [39]: Active
- inhibition [40]: -5%
